{
  "source": "patent US6548508B2",
  "about": "“Use of PDE V inhibitors for improved fecundity in mammals” (Pfizer, Inc., priority 2000, dated 2003)",
  "key": {"[1]": {"system": "CBA × DBA mice", "experiment": "Embryo survival in CBA × DBA mice, i.p. dosing during gestation", "format": "in vivo", "settings": "for % Embryo Survival: assessed day 12", "experimental": "Female mice of the CBA strain (obtained from Charles River, UK) were crossed with male mice of the DBA strain (obtained from Charles River, UK) and treated i.p. with 3-ethyl-5-[5-(4-ethylpiperazin-1-ylsulphonyl)-2-n-propoxyphenyl]-2-(pyridin-2-yl)methyl-2,6-dihydro-7H-pyrazolo[4,3-d]pyrimidin-7-one at the rate of either 1 mg/kg or 3′mg/kg on days 1 to 8 of gestation. The mice were euthanised on day 12 of gestation and the numbers of viable and non-viable embryos were determined relative to corresponding control mice.\nFemale mice of the CBA strain (obtained from Charles River, UK) were crossed with male mice of the DBA strain (obtained from Charles River, UK) and treated i.p. with 3-ethyl-5-[5-(4-ethylpiperazin-1-ylsulphonyl)-2-n-propoxyphenyl]-2-(pyridin-2-yl)methyl-2,6-dihydro-7H-pyrazolo[4,3-d]pyrimidin-7-one at the rate of 1 mg/kg on days 1 to 4 or 4 to 8 of gestation. The mice were euthanised on day 12 of gestation and the numbers of viable and non-viable embryos were determined relative to corresponding control mice."}, "[2]": {"system": "pregnant rats", "experiment": "Birthweights of rat pups after s.c. dosing of pregnant rats throughout gestation", "format": "in vivo", "settings": "for embryonic/foetal growth and birthweight (in words, FIG. 1): s.c. daily 0.3, 1 and 5 mg/kg, gestation days 1-21, pregnant rats; for % increase (birthweights of rat pups): pregnant rats n=10", "experimental": "To evaluate the effects of cGMP PDE V inhibition on embryonic and foetal growth, 3-ethyl-5-[5-(4-ethylpiperazin-1-ylsulphonyl)-2-n-propoxyphenyl]-2-(pyridin-2-yl)methyl-2,6-dihydro-7H-pyrazolo[4,3-d]pyrimidin- 7-one was administered s.c. daily in an aqueous micelle formulation at the rate of 0.3, 1 and 5 mg/kg to pregnant rats. The results are illustrated in FIG. 1.\nA comparative experiment using a similar protocol was carried out using (A) 3-ethyl-5-[5-(4-ethylpiperazin-1-ylsulphonyl)-2-n-propoxyphenyl]-2-(pyridin-2-yl)methyl-2,6-dihydro-7H-pyrazolo[4,3-d]pyrimidin-7-one and the Lilly-ICOS PDE V inhibitor (B) CILIAS/IC-351. The compounds were administered throughout gestation subcutaneously to pregnant rats (n=10) and the birthweights of their corresponding rat pups were measured."}, "[3]": {"system": "Mini-pigs", "experiment": "Model of uterine blood flow and mean arterial blood pressure in mini-pigs", "format": "in vivo", "settings": "intravenous", "source_text": "A model of uterine blood flow was established to assess the effects of PDE V inhibition on uterine flow and mean arterial blood pressure (MAP). Mini-pigs weighing approximately 30 kg were modified surgically. As a means of quantifying real time uterine blood flow a Transoinc blood flow probe was placed around either the left or right uterine artery. Catheters were inserted into a external jugular vein and a carotid artery for blood sampling/administration of compound and measurement of mean arterial blood pressure (MAP) respectively. Test compound was administered intravenously either during oestrous or the luteal phase of the reproductive cycle and the effects of PDE V inhibition on uterine blood flow and MAP were measured. The Y-axis for the two left hand bars is uterine blood flow (ml/min.), and for the two right hand bars is MAP (mmHg)."}, "[4]": {"system": "Friesian cross heifers", "experiment": "Intra-vaginal dosing of Friesian cross heifers: plasma progesterone and uterine horn histology", "format": "in vivo, cattle", "settings": "intra-vaginally twice daily, 30 days, uterine horn cross-sections", "experimental": "Twenty-seven (27) female Friesian cross heifers, approximately 24 months of age were allocated randomly to three treatment groups control, 50 mg and 250 mg of the PDE V inhibitor administered intra-vaginally twice daily. Oestrous was synchronised using two intramuscular injections of PGF2 alpha (Lutalyse™) administered 11 days apart. The PDE V inhibitor was administered intra-vaginally twice daily from day −3 of oestrus until day 6 of the following oestrus (30 days in total). Blood samples were collected daily, plasma was prepared as soon as possible and stored at −20 DEG C. and then analysed for progesterone. At the completion of the study (ie day 6 of the second oestrous period) the cattle were euthanised and the reproductive tract collected. A cross section of the left and right horns of each uterus was collected and stored in 10% Formalin and then analysed histologically."}, "[5]": {"system": "patients undergoing in vitro fertilisation (IVF) with prior poor endometrial response", "settings": "Hum. Reprod., 2000, 15(4), 806-809; cited from earlier work"}, "[6]": {"settings": "0.3 mg/kg s.c. throughout gestation"}, "[7]": {"settings": "1 mg/kg s.c. throughout gestation"}, "[8]": {"settings": "5 mg/kg s.c. throughout gestation"}},
  "data": [
    {"molecule": "CCCOc1ccc(S(=O)(=O)N2CCN(CC)CC2)cc1-c1nc2c(CC)n(Cc3ccccn3)nc2c(=O)[nH]1", "note": "[3-ethyl-5-[5-(4-ethylpiperazin-1-ylsulphonyl)-2-n-propoxyphenyl]-2-(pyridin-2-yl)methyl-2,6-dihydro-7H-pyrazolo[4,3-d]pyrimidin-7-one]", "values": [
      {"measurement": "rate of embryo survival (in words)", "setting": "[1]; days 1-4 or 4-8 of gestation", "value": "improved the rate of embryo survival in both cases"},
      {"measurement": "rate of embryo survival and maintenance of pregnancy (in words)", "setting": "[1]; days 1 to 8 of gestation, CBA×DBA mice", "value": "improves significantly the rate of embryo survival and the maintenance of pregnancy"},
      {"measurement": "embryonic/foetal growth and birthweight (in words, FIG. 1)", "setting": "[2]", "value": "promotes embryonic and/or foetal growth and consequently increases birthweight"}
    ]},
    {"molecule": "CCCOc1ccc(S(=O)(=O)N2CCN(CC)CC2)cc1-c1nc2c(CC)n(Cc3ccccn3)nc2c(=O)[nH]1", "note": "[A, 3-ethyl-5-[5-(4-ethylpiperazin-1-ylsulphonyl)-2-n-propoxyphenyl]-2-(pyridin-2-yl)methyl-2,6-dihydro-7H-pyrazolo[4,3-d]pyrimidin-7-one]", "values": [
      {"measurement": "% Embryo Survival", "setting": "[1]; 1 mg/kg i.p. daily, days 1-4 of gestation, control 54", "value": 81, "unit": "%"},
      {"measurement": "% Embryo Survival", "setting": "[1]; 1 mg/kg i.p. daily, days 1-8 of gestation, control 51", "value": 90, "unit": "%"},
      {"measurement": "% Embryo Survival", "setting": "[1]; 1 mg/kg i.p. daily, days 4-8 of gestation, control 54", "value": 70, "unit": "%"},
      {"measurement": "% Embryo Survival", "setting": "[1]; 3 mg/kg i.p. daily, days 1-8 of gestation, control 51", "value": 84, "unit": "%"},
      {"measurement": "% increase (birthweights of rat pups)", "setting": "[2]; [6]", "value": 2, "unit": "%"},
      {"measurement": "% increase (birthweights of rat pups)", "setting": "[2]; [7]", "value": 6, "unit": "%"},
      {"measurement": "% increase (birthweights of rat pups)", "setting": "[2]; [8]", "value": 10, "unit": "%"},
      {"measurement": "% increase (birthweights of rat pups)", "setting": "[2]; 10 mg/kg s.c. throughout gestation", "value": 12, "unit": "%"},
      {"measurement": "comparison of effectiveness on birth weights of rat pups", "setting": "[2]; A versus B, s.c. throughout gestation", "value": "more effective than compound B"},
      {"measurement": "embryonic/foetal growth and birthweight (in words, FIG. 1)", "setting": "[2]; listed as 3-ethyl-5-(5-(4-ethylpiperazin-1-ylsulphonyl)-2-n-propoxyphenyl)-2-(pyridin-2-yl)", "value": "increases birthweights of rat puts"},
      {"measurement": "mean arterial blood pressure (MAP) (FIG. 2)", "setting": "[3]", "value": "No significant effect on mean arterial blood pressure"},
      {"measurement": "uterine blood flow relative to control (FIG. 2)", "setting": "[3]", "value": "improves significantly uterine blood relative to control animals"},
      {"measurement": "endometrial epithelial thickness relative to control (FIG. 5)", "setting": "[4]", "value": "increases endometrial epithelial thickness relative to control animals"}
    ]},
    {"molecule": "CN1CC(=O)N2[C@H](c3ccc4c(c3)OCO4)c3[nH]c4ccccc4c3C[C@@H]2C1=O", "note": "[B, (6R, 12aR)-2,3,6,7,12,12a-hexahydro-2-methyl-6-(3,4-methylenedioxyphenyl)-pyrazino[2′,1′:6,1]pyrido[3,4-b]indole-1,4-dione, reference compound]", "values": [
      {"measurement": "% increase (birthweights of rat pups)", "setting": "[2]; [6]", "value": 0, "unit": "%"},
      {"measurement": "% increase (birthweights of rat pups)", "setting": "[2]; [7]", "value": 1, "unit": "%"},
      {"measurement": "% increase (birthweights of rat pups)", "setting": "[2]; [8]", "value": 5, "unit": "%"}
    ]},
    {"molecule": "CCCc1nn(C)c2c(=O)[nH]c(-c3cc(S(=O)(=O)N4CCN(C)CC4)ccc3OCC)nc12", "note": "[sildenafil, 5-[2-ethoxy-5-(4-methyl-1-piperazinylsulphonyl)phenyl]-1-methyl-3-n-propyl-1,6-dihydro-7H-pyrazolo[4,3-d]pyrimidin-7-one]", "values": [
      {"measurement": "uterine artery blood flow and endometrial development", "setting": "[5]", "value": "may be effective for improving uterine artery blood flow and endometrial development"}
    ]}
  ]
}
